By IC50 is commonly meant the concentration that inhibits the measured activity by half.

The source of these data is patent US20250382305A1 (PTC THERAPEUTICS, INC., priority 2022, published 2025).

One experiment has as its system ATXN3 pre-mRNA. The experiment is described as follows: RT-qPCR Assay to Quantify Exon 4 Skipping in ATXN3 pre-mRNA in Cells. To be noted: percent exon 4 skipping in ATXN3 pre-mRNA, RT-qPCR of cell lysates; average IC50. The class given is cell-based. The method, boiled down: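 Cells plated at 10,000/well onto a 7-point, 3.16-fold DMSO dilution series (duplicates), incubated 24 h at 37 °C, then lysed. Exon 4 skipping measured by one-step RT-qPCR (48 °C RT, 40 cycles); IC50 interpolated from dose-response fit of percent skipping.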
On the technique in general: In qPCR the cycle at which signal appears reflects the starting amount.

Experiment [1] has as its system Total ATXN3 (tATXN3) protein. The experiment is described as follows: Endogenous Total ATXN3 (tATXN3) Protein Assay (MSD immunoassay of cell lysates). It counts as cell-based. To be noted: average IC50, total ATXN3 protein in cell lysate after 48 h with compound (Table 1). The procedure, abridged: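 Cells in DMEM/10% FBS were plated at 10,000 per well onto 7-point, 3.16-fold compound dilutions in duplicate for 48 h at 37° C, then lysed. Total ATXN3 in lysates was measured by MSD sandwich immunoassay: mouse anti-ATXN3 capture, rabbit anti-ATXN3 detection, SULFO-TAG anti-rabbit. Average IC50 was reported in star bins.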

Take `Cc1c([C@@H]2CC=CC[C@H]2N)sc2c(NCc3ccsc3)cc(Cl)nc12` [Compound 419, 2-((1R,6R)-6-aminocyclohex-3-en-1-yl)-5-chloro-3-methyl-N-(thiophen-3-ylmethyl)thieno[3,2-b]pyridin-7-amine]: the IC50 (with ATXN3 pre-mRNA; in experiment [1]) was 0.03 to 0.3 µM in each case.

For the molecule `N[C@H]1CC=CC[C@@H]1c1c(Cl)c2nc(Cl)cc(NCc3ccccc3)c2n1C(F)F` [Compound 420, 2-((1S,6S)-6-aminocyclohex-3-en-1-yl)-N-benzyl-3,5-dichloro-1-(difluoromethyl)-1H-pyrrolo[3,2-b]pyridin-7-amine], the IC50 (in the experiment with ATXN3 pre-mRNA; in experiment [1]) was 0.03 to 0.3 µM each time.

`N[C@@H]1CCCO[C@H]1c1c(I)c2nc(Cl)nc(NCc3ccco3)c2n1C(F)F` [Compound 422, 6-((2R,3R)-3-aminotetrahydro-2H-pyran-2-yl)-2-chloro-5-(difluoromethyl)-N-(furan-2-ylmethyl)-7-iodo-5H-pyrrolo[3,2-d]pyrimidin-4-amine]: the 50% inhibitory concentration (IC50) (in the experiment on ATXN3 pre-mRNA; in experiment [1]) was 0.03 to 0.3 µM in each case.

Turning to `N[C@@H]1CCCO[C@H]1c1c(Cl)c2nc(Cl)nc(NCc3cccs3)c2n1C(F)F` [Compound 423, 6-((2R,3R)-3-aminotetrahydro-2H-pyran-2-yl)-2,7-dichloro-5-(difluoromethyl)-N-(thiophen-2-ylmethyl)-5H-pyrrolo[3,2-d]pyrimidin-4-amine], the IC50 is not above 0.03 µM with ATXN3 pre-mRNA and 0.03 to 0.3 µM in experiment [1].

For `N[C@@H]1CC=CC[C@H]1c1c(I)c2nc(Cl)nc(NCc3ccccc3)c2n1C(F)F` [Compound 424, 6-((1R,6R)-6-aminocyclohex-3-en-1-yl)-N-benzyl-2-chloro-5-(difluoromethyl)-7-iodo-5H-pyrrolo[3,2-d]pyrimidin-4-amine], the 50% inhibitory concentration (IC50) was not above 0.03 µM with ATXN3 pre-mRNA and 0.03 to 0.3 µM in experiment [1].

`N[C@@H]1CCCO[C@H]1c1c(Br)c2nc(Cl)cc(NCc3ccco3)c2n1C(F)F` [Compound 426, 2-((2R,3R)-3-aminotetrahydro-2H-pyran-2-yl)-3-bromo-5-chloro-1-(difluoromethyl)-N-(furan-2-ylmethyl)-1H-pyrrolo[3,2-b]pyridin-7-amine]: the IC50 in the experiment on ATXN3 pre-mRNA is 0.03 to 0.3 µM; in experiment [1], 0.3 to 1 µM.

In the case of `N[C@@H]1CC=CC[C@H]1c1c(I)c2nc(Cl)cc(NCc3cccs3)c2n1C(F)F` [Compound 427, 2-((1R,6R)-6-aminocyclohex-3-en-1-yl)-5-chloro-1-(difluoromethyl)-3-iodo-N-(thiophen-2-ylmethyl)-1H-pyrrolo[3,2-b]pyridin-7-amine], the figures for the 50% inhibitory concentration (IC50) (with ATXN3 pre-mRNA; in experiment [1]) were not above 0.03 µM and 0.03 to 0.3 µM, respectively.

In the case of `CC#CCNc1cc(Cl)nc2c(Br)c([C@@H]3CCCC[C@H]3N)sc12` [Compound 428, 2-((1R,2R)-2-aminocyclohexyl)-3-bromo-N-(but-2-yn-1-yl)-5-chlorothieno[3,2-b]pyridin-7-amine], the half-inhibitory concentration (IC50) (in the experiment with ATXN3 pre-mRNA; in experiment [1]) was 0.3 to 1 µM each time.

With `CC#CCNc1cc(Cl)nc2c(Br)c([C@@H]3CC=CC[C@H]3N)sc12` [Compound 429, 2-((1R,6R)-6-aminocyclohex-3-en-1-yl)-3-bromo-N-(but-2-yn-1-yl)-5-chlorothieno[3,2-b]pyridin-7-amine], the half-maximal inhibitory concentration (IC50) (in the experiment on ATXN3 pre-mRNA; in experiment [1]) was not above 0.03 µM throughout.

`C#Cc1c([C@@H]2CCCC[C@H]2N)sc2c(NCc3ccccc3F)cc(Cl)nc12` [Compound 430, 2-((1R,2R)-2-aminocyclohexyl)-5-chloro-3-ethynyl-N-(2-fluorobenzyl)thieno[3,2-b]pyridin-7-amine]: the concentration for half-maximal inhibition (IC50) (with ATXN3 pre-mRNA; in experiment [1]) was 0.03 to 0.3 µM throughout.

With `N[C@@H]1CCCC[C@H]1c1sc2c(NCc3ccncc3)cc(Cl)nc2c1Br` [Compound 432, 2-((1R,2R)-2-aminocyclohexyl)-3-bromo-5-chloro-N-(pyridin-4-ylmethyl)thieno[3,2-b]pyridin-7-amine], the half-maximal inhibitory concentration (IC50) (with ATXN3 pre-mRNA; in experiment [1]) was 0.03 to 0.3 µM throughout.

For the molecule `N[C@@H]1CC=CC[C@H]1c1sc2c(NCc3ccncc3)cc(Cl)nc2c1Cl` [Compound 433, 2-((1R,6R)-6-aminocyclohex-3-en-1-yl)-3,5-dichloro-N-(pyridin-4-ylmethyl)thieno[3,2-b]pyridin-7-amine], the 50% inhibitory concentration (IC50) (in the experiment on ATXN3 pre-mRNA; in experiment [1]) was 0.03 to 0.3 µM throughout.

As to `N[C@@H]1CC=CC[C@H]1c1sc2c(NCc3ccccc3)nc(Cl)nc2c1Br` [Compound 434, 6-((1R,6R)-6-aminocyclohex-3-en-1-yl)-N-benzyl-7-bromo-2-chlorothieno[3,2-d]pyrimidin-4-amine], the half-maximal inhibitory concentration (IC50) (in the experiment with ATXN3 pre-mRNA; in experiment [1]) was 0.03 to 0.3 µM throughout.

For `Cc1c([C@@H]2CC=CC[C@H]2N)sc2c(NCc3ccncc3F)nc(Cl)nc12` [Compound 435, 6-((1R,6R)-6-aminocyclohex-3-en-1-yl)-2-chloro-N-((3-fluoropyridin-4-yl)methyl)-7-methylthieno[3,2-d]pyrimidin-4-amine], the IC50 in the experiment on ATXN3 pre-mRNA was not above 0.03 µM; in experiment [1], 0.03 to 0.3 µM.

With `Cc1c([C@@H]2CC=CC[C@H]2N)sc2c(NCc3ccncc3)nc(Cl)nc12` [Compound 436, 6-((1R,6R)-6-aminocyclohex-3-en-1-yl)-2-chloro-7-methyl-N-(pyridin-4-ylmethyl)thieno[3,2-d]pyrimidin-4-amine], the figures for the IC50 (in the experiment with ATXN3 pre-mRNA; in experiment [1]) were 0.3 to 1 µM and more than 1 µM, respectively.

Turning to `N[C@@H]1CC=CC[C@H]1c1sc2c(NCc3ccco3)nc(Cl)nc2c1Cl` [Compound 437, 6-((1R,6R)-6-aminocyclohex-3-en-1-yl)-2,7-dichloro-N-(furan-2-ylmethyl)thieno[3,2-d]pyrimidin-4-amine], the IC50 (in the experiment on ATXN3 pre-mRNA; in experiment [1]) was not above 0.03 µM in each case.

As to `CC#CCNc1cc(Cl)nc2c(Br)c([C@@H]3CC(C)=C(C)C[C@H]3N)sc12` [Compound 438, 2-((1R,6R)-6-amino-3,4-dimethylcyclohex-3-en-1-yl)-3-bromo-N-(but-2-yn-1-yl)-5-chlorothieno[3,2-b]pyridin-7-amine], the values for the 50% inhibitory concentration (IC50) (in the experiment with ATXN3 pre-mRNA; in experiment [1]) were 0.03 to 0.3 µM and 0.3 to 1 µM, respectively.

On to `N[C@@H]1CC=CC[C@H]1c1sc2c(NCc3ccncc3F)nc(Cl)nc2c1Cl` [Compound 439, 6-((1R,6R)-6-aminocyclohex-3-en-1-yl)-2,7-dichloro-N-((3-fluoropyridin-4-yl)methyl)thieno[3,2-d]pyrimidin-4-amine], for which the IC50 (in the experiment with ATXN3 pre-mRNA; in experiment [1]) was 0.3 to 1 µM in each case.

On to `N[C@@H]1CC=CC[C@H]1c1sc2c(NCc3ccncc3)nc(Cl)nc2c1Cl` [Compound 440, 6-((1R,6R)-6-aminocyclohex-3-en-1-yl)-2,7-dichloro-N-(pyridin-4-ylmethyl)thieno[3,2-d]pyrimidin-4-amine], for which the IC50 with ATXN3 pre-mRNA was 0.3 to 1 µM; in experiment [1], more than 1 µM.

With `Cc1c([C@@H]2CC=CC[C@H]2N)sc2c(NCc3nccs3)nc(Cl)nc12` [Compound 441, 6-((1R,6R)-6-aminocyclohex-3-en-1-yl)-2-chloro-7-methyl-N-(thiazol-2-ylmethyl)thieno[3,2-d]pyrimidin-4-amine], the half-inhibitory concentration (IC50) (in the experiment on ATXN3 pre-mRNA; in experiment [1]) was 0.03 to 0.3 µM each time.

For `C/C=C\CNc1cc(Cl)nc2c(Cl)c([C@H]3CCCC[C@@H]3N)sc12` [Compound 442, 2-((1S,2S)-2-aminocyclohexyl)-N-((Z)-but-2-en-1-yl)-3,5-dichlorothieno[3,2-b]pyridin-7-amine], the concentration for half-maximal inhibition (IC50) (with ATXN3 pre-mRNA; in experiment [1]) was 0.03 to 0.3 µM in each case.

In the case of `N#Cc1cc(NCc2ccco2)c2sc([C@@H]3CC=CC[C@H]3N)c(Cl)c2n1` [Compound 443, 2-((1R,6R)-6-aminocyclohex-3-en-1-yl)-3-chloro-7-((furan-2-ylmethyl)amino)thieno[3,2-b]pyridine-5-carbonitrile], the IC50 (in the experiment with ATXN3 pre-mRNA; in experiment [1]) was not above 0.03 µM each time.

As to `CC1=C(C)C[C@@H](c2sc3c(NCc4ccco4)cc(Cl)nc3c2Cl)[C@H](N)C1` [Compound 444, 2-((1R,6R)-6-amino-3,4-dimethylcyclohex-3-en-1-yl)-3,5-dichloro-N-(furan-2-ylmethyl)thieno[3,2-b]pyridin-7-amine], the IC50 in the experiment on ATXN3 pre-mRNA was 0.3 to 1 µM; in experiment [1], more than 1 µM.

Regarding `CCOC(=O)C1=CC[C@@H](c2sc3c(NCc4cccs4)cc(Cl)nc3c2C)[C@@H](N)C1` [Compound 445, ethyl (4R,5S)-5-amino-4-(5-chloro-3-methyl-7-((thiophen-2-ylmethyl)amino)thieno[3,2-b]pyridin-2-yl)cyclohex-1-ene-1-carboxylate], the IC50 (in the experiment on ATXN3 pre-mRNA; in experiment [1]) was 0.3 to 1 µM each time.

With `Cc1c([C@H]2CC=C(C(=O)O)C[C@@H]2N)sc2c(NCc3cccs3)cc(Cl)nc12` [Compound 446, (4S,5S)-5-amino-4-(5-chloro-3-methyl-7-((thiophen-2-ylmethyl)amino)thieno[3,2-b]pyridin-2-yl)cyclohex-1-ene-1-carboxylic acid], the 50% inhibitory concentration (IC50) (in the experiment with ATXN3 pre-mRNA; in experiment [1]) was not above 0.03 µM each time.

For the molecule `N[C@H]1CC=CC[C@@H]1c1sc2c(NCc3cccs3)cc(Cl)nc2c1C#Cc1ccncc1Cl` [Compound 447, 2-((1S,6S)-6-aminocyclohex-3-en-1-yl)-5-chloro-3-((3-chloropyridin-4-yl)ethynyl)-N-(thiophen-2-ylmethyl)thieno[3,2-b]pyridin-7-amine], the IC50 (with ATXN3 pre-mRNA; in experiment [1]) was 0.3 to 1 µM each time.

For `[2H]C1=C([2H])C([2H])([2H])[C@@H](c2sc3c(NCc4ccco4)nc(Cl)nc3c2C)[C@H](N)C1([2H])[2H]` [Compound 449, 6-((1R,6R)-6-aminocyclohex-3-en-1-yl-2,2,3,4,5,5-d6)-2-chloro-N-(furan-2-ylmethyl)-7-methylthieno[3,2-d]pyrimidin-4-amine], the figures for the half-inhibitory concentration (IC50) (with ATXN3 pre-mRNA; in experiment [1]) were 0.3 to 1 µM and 0.03 to 0.3 µM, respectively.
